These results are taken from patent US8809350B2, “Purine and pyrimidine CDK inhibitors and their use for the treatment of autoimmune diseases” (priority 2004, dated 2014).

For assay [1], the system named is stimulated PBMCs. The assay is described as follows: T cell proliferation assay (BrdU ELISA in stimulated PBMCs). Format: cell-based. The protocol: PBMCs were seeded in 96 well plates at 1×10^5 cells/well, in 50 μL per well culture medium. […] All stimulants and compounds were made up to 4× final concentration in tissue culture medium and 25 μL of each drug and stimulant was then added to wells, for a final volume of 100 μL/well. For unstimulated controls, 25 μL tissue culture medium was added to wells instead of stimulant and for untreated cells, 25 μL/well tissue culture medium containing equal volume DMSO (0.1% final) was added. Three adjacent wells were treated for each stimulation/treatment condition and the mean value calculated for analysis.
In addition, PBMCs were stimulated with ConA (Concanavalin A, Sigma C5275) at concentrations ranging from 0.5 μg/mL to 100 μg/mL to identify its stimulatory effect and optimal concentration.
Cells were labelled with BrdU for two hours prior to harvesting. Plates were then centrifuged for 10 minutes at 300 g (RT), supernatant removed from wells by pipetting and cells dried for 1 hour at 60° C. FixDenat solution was added to plates (100 μL/well) and incubated for 30 minutes, then flicked to remove and anti-BrdU-POD solution added to plates (100 μL/well) and incubated for 90 minutes.
In general terms: Uptake of a labelled nucleoside into DNA is a usual measure of proliferation.

For assay [2], the target named is CDK9/cyclin T1 (Homo sapiens, UniProt P50750). The assay is described as follows: CDK 7 and 9 assay (CTD peptide substrate). The note with it: in-house kinase assays; read-out: Average IC50 CDK9T1. Format: biochemical. The protocol: (§1) Kinase activity was investigated by measuring the incorporation of radioactive phosphate from ATP into appropriate polypeptide substrates. Recombinant protein kinases and kinase complexes were produced or obtained commercially. Assays were performed using 96-well plates and appropriate assay buffers (typically 25 mM β-glycerophosphate, 20 mM MOPS, 5 mM EGTA, 1 mM DTT, 1 mM […], pH 7.4), into which were added 2-4 μg of active enzyme with appropriate substrates. The reactions were initiated by addition of Mg/ATP mix (15 mM MgCl2+100 μM ATP with 30-50 kBq per well of [γ-^32P]-ATP) and mixtures incubated as required at 30° C. Reactions were stopped on ice, followed by filtration through p81 filterplates or GF/C filterplates (Whatman Polyfiltronics, Kent, UK). After washing 3 times with 75 mM aq orthophosphoric acid, plates were dried, scintillant added and incorporated radioactivity measured in a scintillation counter (TopCount, Packard Instruments, Pangbourne, Berks, UK). Compounds for kinase assay were made up as 10 mM stocks in DMSO and diluted into 10% DMSO in assay buffer.
(§2) The reaction was stopped by placing the plate on ice for 2 min. Avidin (50 μg) was added to each well, and the plate was incubated at room temp for 30 min. The samples were transferred to a 96-well P81 filter plate, and washed (4×200 μL per well) with 75 mM phosphoric acid. Microscint 40 scintillation liquid (50 μL) was added to each well, and the amount of ^32P incorporation for each sample was measured using a Packard Topcount microplate scintillation counter.

Assay [3] addresses CDK7/cyclin H (Homo sapiens, UniProt P50613). Nature of the assay: CDK 7 and 9 assay (CTD peptide substrate). Format: biochemical. The note with it: in-house kinase assays; read-out: Average IC50 CDK7H. The protocol: as §1, §2
Assay [4] deals with tumour cell panels. Nature of the assay: In-house 72 hour cytotoxicity assays on tumour cell panels. It counts as cell-based.
In assay [5] the target is CDK6D3 (Homo sapiens, UniProt Q00534). The assay is described as follows: In-house kinase assay (32P incorporation). It counts as biochemical. The note with it: in-house kinase assays. The protocol:
as §1

The target of assay [6] is CDK1B (Homo sapiens, UniProt P06493). The assay is described as follows: In-house kinase assay (32P incorporation). Format: biochemical. As to conditions: in-house kinase assays. The protocol:
as §1

Assay [7] concerns the target T1, AurA (Homo sapiens, UniProt O14965).
T1 sequence (O14965 1-403): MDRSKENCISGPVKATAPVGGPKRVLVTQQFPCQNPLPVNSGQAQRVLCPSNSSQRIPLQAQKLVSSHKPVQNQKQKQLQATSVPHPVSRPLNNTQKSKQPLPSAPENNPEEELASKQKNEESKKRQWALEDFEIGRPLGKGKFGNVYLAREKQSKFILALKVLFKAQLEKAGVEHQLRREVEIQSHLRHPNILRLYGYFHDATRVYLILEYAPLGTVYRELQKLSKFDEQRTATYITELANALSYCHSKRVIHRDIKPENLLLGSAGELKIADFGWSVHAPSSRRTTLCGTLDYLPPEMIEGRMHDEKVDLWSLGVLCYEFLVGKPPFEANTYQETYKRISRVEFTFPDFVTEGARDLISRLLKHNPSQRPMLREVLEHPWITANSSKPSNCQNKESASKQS
Nature of the assay: In-house kinase assay (32P incorporation). It counts as biochemical. As to conditions: in-house kinase assays. The protocol:
as §1

Assay [8] deals with AurB (Homo sapiens, UniProt Q96GD4). The assay is described as follows: In-house kinase assay (32P incorporation). It counts as biochemical. As to conditions: in-house kinase assays. The protocol:
as §1

In assay [9] the target is CDK4D1 (Homo sapiens, UniProt P11802). Nature of the assay: In-house kinase assay (32P incorporation). It counts as biochemical. The note with it: in-house kinase assays. The protocol:
as §1

Where [10] appears, read: rounded IC50 value used for ease of calculation in PBMC assays, read-out: IC50 Used.

The structures appear in SMILES notation. Entries after “also recorded” stand apart in the source; their conditions may differ. Read-outs that look alike come from different tables or passages of the source.

Sequence of CDK1B (P06493 whole entry): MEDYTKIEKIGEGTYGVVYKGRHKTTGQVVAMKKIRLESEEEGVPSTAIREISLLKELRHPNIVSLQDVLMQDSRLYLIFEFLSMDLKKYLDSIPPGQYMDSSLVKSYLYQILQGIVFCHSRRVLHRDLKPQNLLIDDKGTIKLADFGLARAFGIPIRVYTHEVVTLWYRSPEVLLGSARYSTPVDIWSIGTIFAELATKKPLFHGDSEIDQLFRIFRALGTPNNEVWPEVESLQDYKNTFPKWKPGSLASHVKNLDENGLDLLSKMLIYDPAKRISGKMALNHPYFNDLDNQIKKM
Sequence of CDK1B (P14635 whole entry partner): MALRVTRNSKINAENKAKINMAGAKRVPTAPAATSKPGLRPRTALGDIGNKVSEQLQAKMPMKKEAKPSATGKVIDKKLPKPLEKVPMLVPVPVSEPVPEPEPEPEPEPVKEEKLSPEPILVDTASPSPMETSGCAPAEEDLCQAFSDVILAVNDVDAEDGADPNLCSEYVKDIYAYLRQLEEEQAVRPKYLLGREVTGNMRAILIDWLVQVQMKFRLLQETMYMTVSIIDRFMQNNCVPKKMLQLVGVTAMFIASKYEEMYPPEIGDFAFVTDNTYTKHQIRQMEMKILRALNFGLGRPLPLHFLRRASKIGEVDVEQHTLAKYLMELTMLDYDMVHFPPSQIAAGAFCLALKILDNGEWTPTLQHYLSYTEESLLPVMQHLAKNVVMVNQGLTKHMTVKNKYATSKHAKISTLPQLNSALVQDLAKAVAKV
Sequence of CDK7/cyclin H (P50613 whole entry): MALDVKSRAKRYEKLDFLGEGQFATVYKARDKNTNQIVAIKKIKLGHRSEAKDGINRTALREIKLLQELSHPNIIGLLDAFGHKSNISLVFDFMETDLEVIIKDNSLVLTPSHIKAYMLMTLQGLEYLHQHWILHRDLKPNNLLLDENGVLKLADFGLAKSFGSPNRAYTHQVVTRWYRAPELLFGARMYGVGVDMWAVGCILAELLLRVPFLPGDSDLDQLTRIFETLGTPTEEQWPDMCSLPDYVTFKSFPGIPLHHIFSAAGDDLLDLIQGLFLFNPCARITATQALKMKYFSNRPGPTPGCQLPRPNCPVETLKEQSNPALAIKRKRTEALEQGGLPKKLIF
Sequence of CDK7/cyclin H (P51946 whole entry partner): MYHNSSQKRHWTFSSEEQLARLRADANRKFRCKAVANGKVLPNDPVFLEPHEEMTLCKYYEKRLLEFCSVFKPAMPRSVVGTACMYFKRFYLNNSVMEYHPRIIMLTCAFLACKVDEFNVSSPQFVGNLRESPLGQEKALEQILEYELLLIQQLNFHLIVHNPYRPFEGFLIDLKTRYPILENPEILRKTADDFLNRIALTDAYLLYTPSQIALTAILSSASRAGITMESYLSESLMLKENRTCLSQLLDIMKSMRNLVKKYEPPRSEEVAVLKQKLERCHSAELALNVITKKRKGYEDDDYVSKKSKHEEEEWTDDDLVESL
Sequence of CDK6D3 (Q00534 whole entry): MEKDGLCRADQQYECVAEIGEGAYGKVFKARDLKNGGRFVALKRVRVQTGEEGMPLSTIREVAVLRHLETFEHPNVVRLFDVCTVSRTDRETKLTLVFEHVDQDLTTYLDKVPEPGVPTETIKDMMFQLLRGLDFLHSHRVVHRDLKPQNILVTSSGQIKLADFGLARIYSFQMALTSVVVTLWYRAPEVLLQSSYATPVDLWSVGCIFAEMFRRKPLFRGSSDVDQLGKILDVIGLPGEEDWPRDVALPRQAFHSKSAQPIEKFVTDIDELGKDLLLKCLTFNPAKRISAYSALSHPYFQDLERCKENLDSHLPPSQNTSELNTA
Sequence of CDK6D3 (P30281 whole entry partner): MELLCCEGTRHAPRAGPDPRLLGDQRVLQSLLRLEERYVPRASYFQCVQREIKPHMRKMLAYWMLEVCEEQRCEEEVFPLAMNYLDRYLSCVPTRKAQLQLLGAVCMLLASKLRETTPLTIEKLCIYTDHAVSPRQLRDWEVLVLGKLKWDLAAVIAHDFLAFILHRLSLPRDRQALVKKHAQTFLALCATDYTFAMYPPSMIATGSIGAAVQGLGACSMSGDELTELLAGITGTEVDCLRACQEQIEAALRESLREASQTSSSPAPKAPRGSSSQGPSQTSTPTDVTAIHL
Sequence of AurB (Q96GD4 whole entry): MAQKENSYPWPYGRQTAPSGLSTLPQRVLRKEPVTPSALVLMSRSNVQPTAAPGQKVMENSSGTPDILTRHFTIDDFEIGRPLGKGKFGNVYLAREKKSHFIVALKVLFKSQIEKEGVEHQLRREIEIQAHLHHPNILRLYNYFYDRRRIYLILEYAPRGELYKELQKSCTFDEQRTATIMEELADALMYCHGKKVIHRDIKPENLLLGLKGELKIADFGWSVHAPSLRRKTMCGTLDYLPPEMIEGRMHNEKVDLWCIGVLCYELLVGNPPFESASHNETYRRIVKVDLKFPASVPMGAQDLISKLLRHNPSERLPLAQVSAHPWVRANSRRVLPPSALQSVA
Sequence of CDK4D1 (P11802 whole entry): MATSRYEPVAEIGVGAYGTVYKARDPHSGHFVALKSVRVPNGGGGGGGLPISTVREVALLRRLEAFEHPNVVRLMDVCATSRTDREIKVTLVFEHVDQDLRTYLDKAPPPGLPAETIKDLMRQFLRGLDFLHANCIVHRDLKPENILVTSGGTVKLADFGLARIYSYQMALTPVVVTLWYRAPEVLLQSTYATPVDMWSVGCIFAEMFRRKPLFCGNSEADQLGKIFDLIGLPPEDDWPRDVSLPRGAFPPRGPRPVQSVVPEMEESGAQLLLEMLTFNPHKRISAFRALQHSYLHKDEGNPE
Sequence of CDK4D1 (P24385 whole entry partner): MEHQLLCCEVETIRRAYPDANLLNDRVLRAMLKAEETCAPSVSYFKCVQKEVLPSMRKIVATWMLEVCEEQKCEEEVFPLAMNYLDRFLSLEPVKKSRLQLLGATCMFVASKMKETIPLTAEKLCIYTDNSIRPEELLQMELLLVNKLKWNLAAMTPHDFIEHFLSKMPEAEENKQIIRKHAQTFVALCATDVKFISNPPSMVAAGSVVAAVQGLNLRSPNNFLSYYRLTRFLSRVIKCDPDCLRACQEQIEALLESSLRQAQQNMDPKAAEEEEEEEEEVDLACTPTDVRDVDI
Sequence of CDK9/cyclin T1 (P50750 whole entry): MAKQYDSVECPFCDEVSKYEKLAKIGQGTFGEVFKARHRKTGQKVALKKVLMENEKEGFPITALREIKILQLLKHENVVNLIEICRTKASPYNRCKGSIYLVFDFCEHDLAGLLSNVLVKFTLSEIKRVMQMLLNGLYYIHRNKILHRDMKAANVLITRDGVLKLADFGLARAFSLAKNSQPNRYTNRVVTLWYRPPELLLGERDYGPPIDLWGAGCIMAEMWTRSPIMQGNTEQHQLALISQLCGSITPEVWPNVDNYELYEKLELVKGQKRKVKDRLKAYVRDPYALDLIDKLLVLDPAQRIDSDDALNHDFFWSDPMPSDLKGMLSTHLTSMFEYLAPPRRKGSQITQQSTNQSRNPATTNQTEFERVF
Sequence of CDK9/cyclin T1 (O60563 whole entry partner): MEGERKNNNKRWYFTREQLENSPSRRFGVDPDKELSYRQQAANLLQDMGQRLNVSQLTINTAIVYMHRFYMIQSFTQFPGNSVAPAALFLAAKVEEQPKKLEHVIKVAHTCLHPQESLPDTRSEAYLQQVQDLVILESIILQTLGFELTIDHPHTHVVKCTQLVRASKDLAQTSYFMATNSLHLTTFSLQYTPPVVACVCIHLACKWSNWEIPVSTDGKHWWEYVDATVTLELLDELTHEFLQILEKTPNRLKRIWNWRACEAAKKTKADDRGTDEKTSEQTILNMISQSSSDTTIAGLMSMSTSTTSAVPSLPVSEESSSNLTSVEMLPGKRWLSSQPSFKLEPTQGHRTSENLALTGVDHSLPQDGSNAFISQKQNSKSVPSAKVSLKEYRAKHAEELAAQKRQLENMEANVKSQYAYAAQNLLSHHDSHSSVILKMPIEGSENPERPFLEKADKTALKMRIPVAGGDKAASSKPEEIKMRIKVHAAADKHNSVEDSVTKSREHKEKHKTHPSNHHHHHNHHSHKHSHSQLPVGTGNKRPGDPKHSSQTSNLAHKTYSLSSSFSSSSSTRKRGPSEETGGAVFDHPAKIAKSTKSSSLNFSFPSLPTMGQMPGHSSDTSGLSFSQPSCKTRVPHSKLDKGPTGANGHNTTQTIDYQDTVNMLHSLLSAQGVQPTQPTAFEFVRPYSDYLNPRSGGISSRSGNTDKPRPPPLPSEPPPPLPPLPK

Turning to `Cc1nc(C)c(-c2ccnc(Nc3ccc(N(C)C)cc3)n2)s1` [Compound 4], the BrdU incorporation result in assay [1] (Example 3, PMA/I stimulated PBMCs, all concentrations) was “higher than in PHA stimulated cells”; in [1] (Example 4, PHA or ConA stimulated PBMCs, 0.25×IC50 to 4×IC50, 48 and 72 hours) it was “BrdU signals do not reduce to background levels; also recorded: fails to achieve complete inhibition of proliferation activity”. Also, the IC50 (as a rule, the concentration that inhibits the measured activity by half) in assay [2] came out at 1880 nM; in assay [3], 8.57 µM; in assay [4] (PBMC, read-out: IC50 Used), 1000 nM; in assay [5], 1040 nM; in assay [6], 7460 nM; in [7], 38 nM. Moreover, the IC50 in assay [8] amounted to 30 nM.
Turning to `CC[C@H](Nc1nc(NCc2cccnc2)c2ncn(C(C)C)c2n1)[C@@H](C)O` [Compound 8], the IC50 was 876 nM in assay [4] (72 h, read-out: IC50 Average); 1000 nM in assay [4] (setting [10]); 168 nM in assay [5]; 1990 nM in [6]; 652 nM in assay [7]; 399 nM in assay [8].
Consider `Cc1nc(N)sc1-c1ccnc(Nc2ccc(N3CCOCC3)cc2)n1` [Compound 11], for which the 50% inhibitory concentration (IC50) in [3] is 0.266 µM; in assay [4] (72 h, read-out: IC50 Average) it was 291 nM; in [4] (setting [10]) it was 500 nM.
As to `CNc1nc(C)c(-c2ccnc(Nc3ccc(N4CCNCC4)cc3)n2)s1` [Compound 12], the IC50 was 353 nM in [4] (72 h, read-out: IC50 Average); 500 nM in assay [4] (setting [10]); 1020 nM in [9]; 1030 nM in assay [6].
